Laboratory results taken from patent US20250122211A1, “NITROGEN-CONTAINING TETRACYCLIC COMPOUND, PREPARATION METHOD THEREFOR, AND MEDICAL USE THEREOF” (Jiangsu Hengrui Pharmaceuticals Co., Ltd., priority 2021, published 2025).
Read-outs that look alike come from different tables or passages of the source.

Legend:
Type in all cases: cell-based
MIA PaCa-2 cells = assay: MIA PaCa-2 cell proliferation assay (CellTiter-Glo); details: 72 h incubation, read-out: IC50 (nM), inhibitory activity against MIA PaCa-2 cell proliferation
Description: The inhibitory activity of the compounds of the present disclosure against MIA PaCa-2 cell proliferation was measured. Below is a brief description of the experimental method:
MIA PaCa-2 cells (ATCC, CRL-1420) were cultured in DMEM/HIGH GLUCOSE medium (GE, SH30243.01) containing 10% fetal bovine serum (Corning, 35-076-CV) and 2.5% horse serum (Beyotime Biological Tech., C0262) (i.e., complete medium). On the first day of the experiment, MIA PaCa-2 cells were seeded into a 96-well plate at a density of 500 cells/well using complete medium, with 90 µL of cell suspension per well, and the plate was incubated overnight in a 37° C., 5% CO2 cell incubator. On the second day, the test compounds, prepared in complete medium and serially diluted, were added at 10 μL/well. The final concentrations of the compounds were 9 concentration points obtained by a 5-fold serial dilution from 10 μM. A blank control containing 0.5% DMSO was set up. The plate was incubated for 72 h in a 37° C., 5% CO2 cell incubator. On the fifth day, the 96-well cell plate was removed from the incubator, and CellTiter-Glo® Luminescent Cell Viability Assay (Promega, G7573) was added at 50 μL/well. After 10 min of room temperature incubation, luminescence signals were measured using a multifunctional microplate reader (PerkinElmer, EnVision2015). The IC50 values for the inhibitory activity of the compounds were calculated using Graphpad Prism software.

H358 cells = assay: H358 proliferation assay (CellTiter-Glo); details: 120 h incubation, read-out: IC50 (nM), inhibitory activity against H358 cell proliferation
Description: The inhibitory activity of the compounds of the present disclosure against H358 cell proliferation was measured. Below is a brief description of the experimental method: H358 cells (ATCC, CRL-5807) were cultured in RPMI1640 medium (Hyclone, SH30809.01) containing 10% fetal bovine serum (Corning, 35-076-CV) (i.e., complete medium). On the first day of the experiment, H358 cells were seeded into a 96-well plate at a density of 1200 cells/well using complete medium, with 100 μL of cell suspension per well, and the plate was incubated overnight in a 37° C., 5% CO2 cell incubator. On the second day, the test compounds, prepared in complete medium and serially diluted, were added at 10 μL/well. The final concentrations of the compounds were 9 concentration points obtained by a 5-fold serial dilution from 10 μM. A blank control containing 0.5% DMSO was set up. The plate was incubated for 120 h in a 37° C., 5% CO2 cell incubator. On the seventh day, the 96-well cell plate was removed from the incubator, and CellTiter-Glo® Luminescent Cell Viability Assay (Promega, G7573) was added at 50 μL/well. After 10 min of room temperature incubation, luminescence signals were measured using a multifunctional microplate reader (PerkinElmer, EnVision® 2105). The IC50 values for the inhibitory activity of the compounds were calculated using Graphpad Prism software.

[1] = test system: ERK phosphorylation in H358 cells; assay: H358 cell ERK phosphorylation inhibition assay (HTRF pERK/total ERK); details: 3 h incubation, ratio of pERK/total ERK, read-out: IC50 (nM), inhibitory effects on ERK phosphorylation in H358 cells
Description: The inhibitory effects of the compounds of the present disclosure on ERK phosphorylation in H358 cells were measured. Below is a brief description of the experimental method: H358 cells (ATCC, CRL-5807) were cultured in RPMI1640 medium (Hyclone, SH30809.01) containing 10% fetal bovine serum (Corning, 35-076-CV) (i.e., complete medium). On the first day of the experiment, H358 cells were seeded into a 96-well plate at a density of 25,000 cells/well using complete medium, with 190 μL of cell suspension per well, and the plate was incubated overnight in a 37° C., 5% CO2 cell incubator. On the second day, the test compounds, prepared in complete medium and serially diluted, were added at 10 μL/well. The final concentrations of the compounds were 9 concentration points obtained by a 6-fold serial dilution from 10 μM. A blank control containing 0.5% DMSO was set up. The plate was incubated for 3 h in a 37° C., 5% CO2 cell incubator. After 3 h, the 96-well cell culture plate was removed from the incubator, and the culture medium was pipetted off. PBS (Shanghai BasalMedia Technologies Co., Ltd., B320) was added at 200 μL/well for a single wash. PBS was pipetted off, and lysis buffer (Cisbio, 64KL1FDF) containing a blocking agent (Cisbio, 64KB1AAC) was added at 50 μL/well. The plate was incubated on a shaker for 30 min at room temperature to lyse the cells. After lysis, the lysates were well mixed by pipetting, and 16 μL of lysate was transferred from each well to two HTRF 96-well assay plates (Cisbio, 66PL96100). Subsequently, 4 μL of a premixed phospho-ERK1/2 antibody solution (Cisbio, 64AERPEG) or 4 μL of a premixed total-ERK1/2 antibody solution (Cisbio, 64NRKPEG) was added to each of the plates. The plates were sealed with a plate sealer film, centrifuged for 1 min in a microplate centrifuge, and incubated overnight at room temperature in the dark. On the third day, fluorescence values at an excitation wavelength of 337 nm and emission wavelengths of 665 nm and 620 nm were measured using a PHERAstar multifunctional microplate reader (BMG Labtech, PHERAstar FS). The IC50 values for the inhibitory activity of the compounds were calculated using Graphpad Prism software, based on the compound concentration and the ratio of pERK/total ERK.

Compound | IC50 (MIA PaCa-2 cells) [nM] | IC50 (H358 cells) [nM] | IC50 [1] [nM] | IC50 (MIA PaCa-2 cells; Homo sapiens, MIA PaCa-2, 72 h) [nM] | IC50 (H358 cells; Homo sapiens, NCI-H358, 120 h) [nM] | IC50 ([1]; Homo sapiens, NCI-H358, 3 h) [nM]
C=CC(=O)N1CCN2C(=O)c3c(F)c(F)c(-c4ccc(F)c5sc(N)c(C#N)c45)c4cnn(c34)CC[C@H]2C1 (atropisomer, axis not shown) [Example 11-P2, (S)-4-((S)-10-Acryloyl-1,2-difluoro-14-oxo-8,8a,9,10,11,12-hexahydro-7H,14H-pyrazino[1′,2′:5.6][1,5]diazocino[3,2,1-hi]indazol-3-yl)-2-amino-7-fluorobenzo[b]thiophene-3-carbonitrile] | 0.46 | 0.32 | 0.09 |  |  | 
C=CC(=O)N1CCN2C(=O)c3cc(F)c(-c4ccc(F)c5sc(N)c(C#N)c45)c4ccn(c34)CC[C@H]2C1 [Example 2, 4-((S)-10-Acryloyl-2-fluoro-14-oxo-8,8a,9,10,11,12-hexahydro-7H,14H-pyrazino[1′,2′:5,6][1,5]diazocino[3,2,1-hi]indol-3-yl)-2-amino-7-fluorobenzo[b]thiophene-3-carbonitrile] |  |  |  | 5.87 | 10.5 | 0.28
C=C(F)C(=O)N1CCN2C(=O)c3cc(F)c(-c4ccc(F)c5sc(N)c(C#N)c45)c4ccn(c34)CC[C@H]2C1 [Example 5, 2-Amino-7-fluoro-4-((S)-2-fluoro-10-(2-fluoroacryloyl)-14-oxo-8,8a,9,10,11,12-hexahydro-7H,14H-pyrazino[1′,2′:5,6][1,5]diazocino[3,2,1-hi]indol-3-yl)benzo[b]thiophene-3-carbonitrile] |  |  |  |  |  | 36.2
C=CC(=O)N1CCN2C(=O)c3cc(F)c(-c4ccc(F)c5sc(N)c(C#N)c45)c4cnn(c34)CC[C@H]2C1 (atropisomer, axis not shown) [Example 1-P2, (S)-4-((S)-10-Acryloyl-2-fluoro-14-oxo-8,8a,9,10,11,12-hexahydro-7H,14H-pyrazino[1′,2′:5,6][1,5]diazocino[3,2,1-hi]indazol-3-yl)-2-amino-7-fluorobenzo[b]thiophene-3-carbonitrile] | 0.4 | 0.93 | 0.07 |  |  | 
C=CC(=O)N1CCN2C(=O)c3cc(F)c(-c4ccc(F)c5sc(N)c(C#N)c45)c4cnn(c34)CC[C@H]2C1 (atropisomer, axis not shown) [Example 1-P1, (R)-4-((S)-10-Acryloyl-2-fluoro-14-oxo-8,8a,9,10,11,12-hexahydro-7H,14H-pyrazino[1′,2′:5,6][1,5]diazocino[3,2,1-hi]indazol-3-yl)-2-amino-7-fluorobenzo[b]thiophene-3-carbonitrile] | 2.79 | 12 | 1.33 |  |  | 
C=CC(=O)N1CCN2C(=O)c3cc(F)c(-c4ccc(F)c5sc(N)c(C#N)c45)c4cc(C)n(c34)CC[C@H]2C1 [Example 4, 4-((S)-10-Acryloyl-2-fluoro-5-methyl-14-oxo-8,8a,9,10,11,12-hexahydro-7H,14H-pyrazino[1′,2′:5,6][1,5]diazocino[3,2,1-hi]indol-3-yl)-2-amino-7-fluorobenzo[b]thiophene-3-carbonitrile] |  |  |  | 11.2 | 13.4 | 1.16
C=CC(=O)N1CCN2C(=O)c3cc(F)c(-c4ccc(F)c5sc(N)c(C#N)c45)c4c(C)nn(c34)CC[C@H]2C1 (atropisomer, axis not shown) [Example 9-P1, (R)-4-((S)-10-Acryloyl-2-fluoro-4-methyl-14-oxo-8,8a,9,10,11,12-hexahydro-7H,14H-pyrazino[1′,2′:5,6][1,5]diazocino[3,2,1-hi]indazol-3-yl)-2-amino-7-fluorobenzo[b]thiophene-3-carbonitrile] |  |  | 32.5 |  |  | 
C=CC(=O)N1C[C@@H]2CCn3ncc4c(-c5ccc(F)c6sc(N)c(C#N)c56)c(F)cc(c43)C(=O)N2C[C@H]1C [Example 10, 4-((8aS,11R)-10-Acryloyl-2-fluoro-11-methyl-14-oxo-8,8a,9,10,11,12-hexahydro-7H,14H-pyrazino[1′,2′:5,6][1,5]diazocino[3,2,1-hi]indazol-3-yl)-2-amino-7-fluorobenzo[b]thiophene-3-carbonitrile] |  |  |  | 0.94 | 0.8 | 0.15
C=CC(=O)N1CCN2C(=O)c3c(F)c(F)c(-c4ccc(F)c5sc(N)c(C#N)c45)c4cnn(c34)CC[C@H]2C1 (atropisomer, axis not shown) [Example 11-P1, (R)-4-((S)-10-Acryloyl-1,2-difluoro-14-oxo-8,8a,9,10,11,12-hexahydro-7H,14H-pyrazino[1′,2′:5.6][1,5]diazocino[3,2,1-hi]indazol-3-yl)-2-amino-7-fluorobenzo[b]thiophene-3-carbonitrile] | 2.71 | 2.25 | 7.67 |  |  | 
C=CC(=O)N1CCN2C(=O)c3cc(F)c(-c4ccc(F)c5sc(N)nc45)c4ccn(c34)CC[C@H]2C1 [Example 3, (8aS)-10-Acryloyl-3-(-2-amino-7-fluorobenzo[d]thiazol-4-yl)-2-fluoro-8,8a,9,10,11,12-hexahydro-7H,14H-pyrazino[1′,2′:5,6][1,5]diazocino[3,2,1-hi]indol-14-one] |  |  |  |  |  | 23.7
C=CC(=O)N1CCN2C(=O)c3cc(F)c(-c4ccc(F)c5sc(N)c(C#N)c45)c4cnn(c34)C[C@H]2C1 [Example 14, 4-((R)-10-Acryloyl-4-fluoro-6-oxo-8,9,10,11,11a,12-hexahydro-6H-pyrazino[2′,1′:3,4][1,4]diazepino[6,7,1-hi]indazol-3-yl)-2-amino-7-fluorobenzo[b]thiophene-3-carbonitrile] |  |  |  | 39.6 |  | 1.35
C=CC(=O)N1CCN2C(=O)c3cc(F)c(-c4ccc(F)c5sc(N)c(C#N)c45)c4cnn(c34)CC[C@@H]2C1 (atropisomer, axis not shown) [Example 12-P2, (S)-4-((R)-10-Acryloyl-2-fluoro-14-oxo-8,8a,9,10,11,12-hexahydro-7H,14H-pyrazino[1′,2′:5,6][1,5]diazocino[3,2,1-hi]indazol-3-yl)-2-amino-7-fluorobenzo[b]thiophene-3-carbonitrile] |  |  |  | 35.3 |  | 11.3
